The source of these data is ChEMBL document CHEMBL5120784, “Discovery of a novel 2-aminopyrazine-3-carboxamide as a potent and selective inhibitor of Activin Receptor-Like Kinase-2 (ALK2) for the treatment of fibrodysplasia ossificans progressiva” (Bioorg Med Chem Lett, 2022).

Data set [1] is described as follows: Permeability of compound by PAMPA assay. The format is ADME. More on the design: reference not given here.
Data set [2] is described as follows: Aqueous solubility of compound at pH 6.8. The format is physicochemical.
Data set [3] can be described thus: Microsomal stability in mouse liver microsomes assessed as clearance. In kind it is ADME, Microsome.
The target of the next data set is T1, TGF-beta receptor type-1 (Homo sapiens, UniProt P36897).
T1 sequence (P36897 whole entry): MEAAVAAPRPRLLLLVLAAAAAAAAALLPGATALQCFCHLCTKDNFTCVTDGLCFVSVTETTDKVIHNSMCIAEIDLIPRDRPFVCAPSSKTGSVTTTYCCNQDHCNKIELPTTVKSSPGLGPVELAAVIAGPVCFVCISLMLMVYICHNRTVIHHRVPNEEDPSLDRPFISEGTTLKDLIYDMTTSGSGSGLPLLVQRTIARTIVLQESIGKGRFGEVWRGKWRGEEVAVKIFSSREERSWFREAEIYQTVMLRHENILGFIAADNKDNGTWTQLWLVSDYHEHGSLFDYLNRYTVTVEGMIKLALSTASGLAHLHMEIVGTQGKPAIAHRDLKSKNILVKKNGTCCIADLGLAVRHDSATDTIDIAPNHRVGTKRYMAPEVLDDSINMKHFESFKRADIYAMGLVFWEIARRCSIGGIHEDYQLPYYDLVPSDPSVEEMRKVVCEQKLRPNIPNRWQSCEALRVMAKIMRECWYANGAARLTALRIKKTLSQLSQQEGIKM
The data set can be described thus: Inhibition of wild type ALK5 (unknown origin) assessed as enzymatic activity by microfluidic mobility shift assay.

Data set [4] concerns the target Dual specificity protein kinase CLK2 (Homo sapiens) (UniProt P49760). Nature of the data set: Binding affinity to wild type CLK2 (unknown origin) assessed as percent of control at 1 uM by Kinomescan method relative to control.
Data set [5] deals with Non-receptor tyrosine-protein kinase TYK2 (Homo sapiens) (UniProt P29597). Nature of the data set: Binding affinity to wild type TYK2 JH2 domain (unknown origin) assessed as percent of control at 1 uM by Kinomescan method relative to control.
The species entered for data set [6] is Homo sapiens. Nature of the data set: Selectivity ratio of IC50 for inhibition of wild type ALK3 (unknown origin) to IC50 for inhibition of ALK2 R206H mutant (unknown origin).
The species entered for data set [7] is Homo sapiens. Nature of the data set: Selectivity ratio of IC50 for inhibition of wild type ALK5 (unknown origin) to IC50 for Inhibition of ALK2 R206H mutant (unknown origin).
Data set [8] concerns the target T2, Activin receptor type-1 (Homo sapiens, UniProt Q04771).
T2 sequence (Q04771 whole entry): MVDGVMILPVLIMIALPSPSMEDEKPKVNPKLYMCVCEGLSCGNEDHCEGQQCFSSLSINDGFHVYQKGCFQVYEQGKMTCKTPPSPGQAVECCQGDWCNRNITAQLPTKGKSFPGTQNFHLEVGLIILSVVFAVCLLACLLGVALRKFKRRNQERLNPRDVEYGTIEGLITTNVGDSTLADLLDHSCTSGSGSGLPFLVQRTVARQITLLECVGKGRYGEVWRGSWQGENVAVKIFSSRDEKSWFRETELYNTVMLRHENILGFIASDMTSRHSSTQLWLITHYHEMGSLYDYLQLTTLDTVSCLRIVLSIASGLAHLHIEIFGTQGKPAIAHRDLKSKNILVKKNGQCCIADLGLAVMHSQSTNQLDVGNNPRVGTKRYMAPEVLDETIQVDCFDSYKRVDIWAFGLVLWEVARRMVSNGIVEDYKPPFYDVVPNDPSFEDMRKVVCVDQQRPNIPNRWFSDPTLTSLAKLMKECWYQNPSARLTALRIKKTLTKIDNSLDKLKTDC
Nature of the data set: Inhibition of wild type ALK2 (unknown origin) assessed as enzymatic activity by microfluidic mobility shift assay.

In data set [9] the target is Serine/threonine-protein kinase 38 (Homo sapiens) (UniProt Q15208). The data set can be described thus: Binding affinity to wild type STK38 (unknown origin) assessed as percent of control at 1 uM by Kinomescan method relative to control.
Serine/threonine-protein kinase 38 (Homo sapiens), sequence (Q15208 2-465 limits assumed): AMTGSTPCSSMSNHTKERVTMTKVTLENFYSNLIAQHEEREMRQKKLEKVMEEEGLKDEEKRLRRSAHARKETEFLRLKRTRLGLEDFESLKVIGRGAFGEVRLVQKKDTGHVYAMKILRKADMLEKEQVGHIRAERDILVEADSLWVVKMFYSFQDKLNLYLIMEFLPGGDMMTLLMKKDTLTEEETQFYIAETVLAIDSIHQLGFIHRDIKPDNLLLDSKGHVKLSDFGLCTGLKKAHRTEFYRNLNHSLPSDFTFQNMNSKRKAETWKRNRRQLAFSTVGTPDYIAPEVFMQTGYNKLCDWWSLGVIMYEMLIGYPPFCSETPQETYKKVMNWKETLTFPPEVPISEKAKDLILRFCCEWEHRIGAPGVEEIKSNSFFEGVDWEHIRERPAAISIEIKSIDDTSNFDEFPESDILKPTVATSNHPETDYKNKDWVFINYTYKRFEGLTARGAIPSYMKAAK
Data set [10] deals with T3, Bone morphogenetic protein receptor type-1B (Homo sapiens, UniProt O00238). Nature of the data set: Binding affinity to wild type ALK6 (unknown origin) assessed as percent of control at 1 uM by Kinomescan method relative to control.
T3 sequence (O00238 whole entry): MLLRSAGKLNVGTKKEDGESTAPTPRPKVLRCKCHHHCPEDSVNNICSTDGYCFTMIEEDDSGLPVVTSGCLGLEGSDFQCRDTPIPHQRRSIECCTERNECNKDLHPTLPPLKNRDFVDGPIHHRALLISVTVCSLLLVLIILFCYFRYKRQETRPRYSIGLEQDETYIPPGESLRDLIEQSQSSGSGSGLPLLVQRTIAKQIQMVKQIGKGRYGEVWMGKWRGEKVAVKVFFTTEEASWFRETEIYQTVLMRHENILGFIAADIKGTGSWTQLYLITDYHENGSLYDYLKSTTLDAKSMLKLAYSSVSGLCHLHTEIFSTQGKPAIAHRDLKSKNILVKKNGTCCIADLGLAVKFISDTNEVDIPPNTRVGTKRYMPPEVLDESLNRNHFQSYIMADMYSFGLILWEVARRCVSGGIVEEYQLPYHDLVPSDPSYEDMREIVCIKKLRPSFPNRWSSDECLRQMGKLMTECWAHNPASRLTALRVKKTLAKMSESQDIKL
For data set [11], the species on record is Homo sapiens. Nature of the data set: Selectivity ratio of IC50 for inhibition of wild type ALK1 (unknown origin) to IC50 for inhibition of ALK2 R206H mutant (unknown origin).
For data set [12], the species on record is Homo sapiens. The data set can be described thus: Selectivity ratio of IC50 for inhibition of wild type ALK6 (unknown origin) to IC50 for inhibition of ALK2 R206H mutant (unknown origin).
Data set [13] concerns the target Dual specificity protein kinase CLK1 (Homo sapiens) (UniProt P49759). The data set can be described thus: Binding affinity to wild type CLK1 (unknown origin) assessed as percent of control at 1 uM by Kinomescan method relative to control.
Data set [14] concerns the target T4, Activin receptor type-1-like (Homo sapiens, UniProt P37023). The data set can be described thus: Inhibition of wild type ALK1 (unknown origin) assessed as enzymatic activity by microfluidic mobility shift assay.
The target in data set [15] is T5, Activin receptor type-1 (Homo sapiens) (UniProt Q04771).
T5 sequence (whole entry): T2 sequence (Q04771 whole entry)
The data set can be described thus: Binding affinity to wild type ALK2 (unknown origin) assessed as percent of control at 1 uM by Kinomescan method relative to control.

The target of data set [16] is T4, Activin receptor type-1-like. The data set can be described thus: Binding affinity to wild type ALK1 (unknown origin) assessed as percent of control at 1 uM by Kinomescan method relative to control.
Data set [17] addresses T6, Bone morphogenetic protein receptor type-1A (Homo sapiens, UniProt P36894). The data set can be described thus: Binding affinity to wild type ALK3 (unknown origin) assessed as percent of control at 1 uM by Kinomescan method relative to control.
For data set [18], the target named is Interferon-induced, double-stranded RNA-activated protein kinase (Homo sapiens) (UniProt P19525). Nature of the data set: Binding affinity to wild type EIF2AK2 (unknown origin) assessed as percent of control at 1 uM by Kinomescan method relative to control.
Interferon-induced, double-stranded RNA-activated protein kinase (Homo sapiens), sequence (P19525 whole entry): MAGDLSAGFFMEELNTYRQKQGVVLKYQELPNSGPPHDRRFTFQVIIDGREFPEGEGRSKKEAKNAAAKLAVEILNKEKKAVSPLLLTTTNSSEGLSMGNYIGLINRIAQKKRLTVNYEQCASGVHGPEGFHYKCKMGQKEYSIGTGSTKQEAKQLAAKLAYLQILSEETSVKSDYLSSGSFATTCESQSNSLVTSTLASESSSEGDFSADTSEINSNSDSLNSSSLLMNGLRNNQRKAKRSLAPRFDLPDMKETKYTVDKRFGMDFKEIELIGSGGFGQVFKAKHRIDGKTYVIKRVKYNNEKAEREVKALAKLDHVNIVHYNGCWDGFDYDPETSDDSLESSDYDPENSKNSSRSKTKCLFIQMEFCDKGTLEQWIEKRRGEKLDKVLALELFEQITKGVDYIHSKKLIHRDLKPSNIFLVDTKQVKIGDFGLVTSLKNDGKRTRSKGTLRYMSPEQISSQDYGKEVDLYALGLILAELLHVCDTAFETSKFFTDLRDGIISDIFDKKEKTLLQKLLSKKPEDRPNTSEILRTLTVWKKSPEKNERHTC
The species entered for data set [19] is Homo sapiens. Nature of the data set: Selectivity ratio of IC50 for inhibition of wild type ALK2 (unknown origin) to IC50 for inhibition of ALK2 R206H mutant (unknown origin).
Data set [20] addresses T7, Activin receptor type-1 (Homo sapiens, UniProt Q04771, R206H). The data set can be described thus: Inhibition of ALK2 R206H mutant (unknown origin) assessed as enzymatic activity by microfluidic mobility shift assay.
Data set [21] has as its target T3, Bone morphogenetic protein receptor type-1B. The data set can be described thus: Inhibition of wild type ALK6 (unknown origin) assessed as enzymatic activity using chemiluminescent substrate by ADP-Glo assay.
For data set [22], the target named is T7, Activin receptor type-1. The data set can be described thus: Inhibition of ALK2 R206H mutant (unknown origin) transfected in BMP6-stimulated human HEK293 cells by luciferase reporter gene assay. In kind it is cell-based.
Data set [23] has as its target T6, Bone morphogenetic protein receptor type-1A. The data set can be described thus: Inhibition of wild type ALK3 (unknown origin) assessed as enzymatic activity using chemiluminescent substrate by ADP-Glo assay.

≈ marks a conversion by molar mass, not a printed value.

T7 sequence (Q04771 21-509 R206H limits assumed): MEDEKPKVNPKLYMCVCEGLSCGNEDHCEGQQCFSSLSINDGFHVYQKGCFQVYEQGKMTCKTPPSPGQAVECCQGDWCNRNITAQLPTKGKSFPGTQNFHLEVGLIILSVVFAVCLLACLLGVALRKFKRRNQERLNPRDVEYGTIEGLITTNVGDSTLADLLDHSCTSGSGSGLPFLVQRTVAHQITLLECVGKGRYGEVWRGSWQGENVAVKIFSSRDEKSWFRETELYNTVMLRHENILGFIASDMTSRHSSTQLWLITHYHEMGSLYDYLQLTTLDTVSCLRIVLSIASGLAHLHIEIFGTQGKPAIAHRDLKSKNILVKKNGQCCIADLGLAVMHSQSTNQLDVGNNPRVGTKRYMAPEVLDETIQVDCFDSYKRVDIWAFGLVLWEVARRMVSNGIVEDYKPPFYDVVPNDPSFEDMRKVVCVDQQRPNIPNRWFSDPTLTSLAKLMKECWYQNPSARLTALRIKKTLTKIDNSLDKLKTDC
T4 sequence (P37023 whole entry): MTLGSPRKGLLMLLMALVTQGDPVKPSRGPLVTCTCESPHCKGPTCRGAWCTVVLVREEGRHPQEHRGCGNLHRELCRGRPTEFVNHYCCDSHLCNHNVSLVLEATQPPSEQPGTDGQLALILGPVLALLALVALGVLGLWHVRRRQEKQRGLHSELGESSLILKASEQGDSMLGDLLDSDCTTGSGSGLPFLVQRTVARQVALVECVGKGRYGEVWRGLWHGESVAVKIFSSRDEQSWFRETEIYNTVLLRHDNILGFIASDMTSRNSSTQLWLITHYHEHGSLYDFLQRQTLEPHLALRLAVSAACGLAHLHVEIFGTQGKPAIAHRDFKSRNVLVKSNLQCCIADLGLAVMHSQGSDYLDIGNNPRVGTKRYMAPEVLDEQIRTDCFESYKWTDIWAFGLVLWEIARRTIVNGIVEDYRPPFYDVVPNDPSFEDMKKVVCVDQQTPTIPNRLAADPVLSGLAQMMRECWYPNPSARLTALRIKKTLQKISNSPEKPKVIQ
T6 sequence (P36894 whole entry): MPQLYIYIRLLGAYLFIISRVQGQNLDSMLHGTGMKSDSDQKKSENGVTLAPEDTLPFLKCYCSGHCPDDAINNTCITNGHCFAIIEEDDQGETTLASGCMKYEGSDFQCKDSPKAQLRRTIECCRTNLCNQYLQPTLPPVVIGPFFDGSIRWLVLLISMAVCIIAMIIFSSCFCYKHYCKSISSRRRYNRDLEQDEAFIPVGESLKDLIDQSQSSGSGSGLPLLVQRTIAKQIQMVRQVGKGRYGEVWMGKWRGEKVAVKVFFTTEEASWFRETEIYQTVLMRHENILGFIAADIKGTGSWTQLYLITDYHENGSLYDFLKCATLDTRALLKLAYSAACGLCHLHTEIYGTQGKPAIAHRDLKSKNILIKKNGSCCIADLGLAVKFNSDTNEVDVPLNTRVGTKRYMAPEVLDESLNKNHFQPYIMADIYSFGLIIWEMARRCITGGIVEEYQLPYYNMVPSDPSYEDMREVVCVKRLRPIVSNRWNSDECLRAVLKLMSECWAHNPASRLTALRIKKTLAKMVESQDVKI
Dual specificity protein kinase CLK2 (Homo sapiens), sequence (P49760 whole entry, looked up, the tested form may be a part): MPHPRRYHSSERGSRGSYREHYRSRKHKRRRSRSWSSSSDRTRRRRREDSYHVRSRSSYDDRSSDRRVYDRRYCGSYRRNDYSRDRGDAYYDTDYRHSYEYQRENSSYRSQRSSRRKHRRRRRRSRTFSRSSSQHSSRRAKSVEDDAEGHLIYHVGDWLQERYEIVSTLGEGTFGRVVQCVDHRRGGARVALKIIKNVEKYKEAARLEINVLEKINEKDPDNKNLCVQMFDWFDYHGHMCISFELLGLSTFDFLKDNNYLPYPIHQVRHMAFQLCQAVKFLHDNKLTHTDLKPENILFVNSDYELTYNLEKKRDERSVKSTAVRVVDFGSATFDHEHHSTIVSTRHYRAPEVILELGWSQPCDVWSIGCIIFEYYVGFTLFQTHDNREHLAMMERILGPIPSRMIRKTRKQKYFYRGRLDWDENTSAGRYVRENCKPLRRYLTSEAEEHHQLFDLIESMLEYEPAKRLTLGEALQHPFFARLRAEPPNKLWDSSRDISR
Dual specificity protein kinase CLK1 (Homo sapiens), sequence (P49759 whole entry, looked up): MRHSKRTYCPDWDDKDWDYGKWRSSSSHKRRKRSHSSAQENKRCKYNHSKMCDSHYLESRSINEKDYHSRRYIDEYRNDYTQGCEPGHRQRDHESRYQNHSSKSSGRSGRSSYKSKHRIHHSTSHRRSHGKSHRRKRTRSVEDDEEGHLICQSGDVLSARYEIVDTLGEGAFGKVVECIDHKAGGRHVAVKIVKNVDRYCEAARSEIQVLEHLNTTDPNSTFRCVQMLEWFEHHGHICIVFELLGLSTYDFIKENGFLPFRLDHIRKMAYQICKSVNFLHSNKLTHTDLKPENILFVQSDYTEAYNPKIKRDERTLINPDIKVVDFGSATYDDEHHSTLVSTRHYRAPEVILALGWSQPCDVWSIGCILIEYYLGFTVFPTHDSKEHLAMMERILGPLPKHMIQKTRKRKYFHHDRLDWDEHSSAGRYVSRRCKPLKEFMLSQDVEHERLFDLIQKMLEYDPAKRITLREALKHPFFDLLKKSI

`CCN(CC)C1CCN(Cc2ccc(-c3cnc(N)c(C(=O)N[C@H]4CC[C@H](O)CC4)n3)cc2)CC1` showed a permeability in data set [1] of 61%. The compound further returned a solubility in data set [2] of over 1000 µM. For the same compound, in [3], the CLH was under 10 µL/min/mg.
For `CN(C)Cc1ccc(-c2cnc(N)c(C(=O)NC3CCCCC3)n2)cc1`, in that order: 100%, 190 µM (≈ 67.2 µg/mL) and 839 µL/min/mg.
For `Nc1ncc(-c2ccc(CN3CCC(N4CCOCC4)CC3)cc2)nc1C(=O)N[C@H]1CC[C@H](O)CC1` the same measures were 65%, over 1000 µM and 19 µL/min/mg.
In turn, `CC(O)CNC(=O)c1nc(-c2ccc(CN(C)C)cc2)cnc1N` (racemic) came in with a permeability in data set [1] of 77%. This compound yielded a solubility in [2] of over 1000 µM. Further, in data set [3], the CLH is 103 µL/min/mg.
For `Nc1ncc(-c2ccc(CN3CCC(N4CCCC4)CC3)cc2)nc1C(=O)N[C@H]1CC[C@H](O)CC1` (stereo in doubt; 18), in that order: 56%, over 1000 µM and under 10 µL/min/mg.
On to `C[C@]1(O)CC[C@H](NC(=O)c2nc(-c3ccc(CN4CCC(N5CCOCC5)CC4)cc3Cl)cnc2N)CC1`, for which the CLH in data set [3] turned out to be 197 µL/min/mg.
Consider `CCN(CC)Cc1ccc(-c2cnc(N)c(C(=O)NC[C@@](C)(O)C(F)(F)F)n2)cc1`, for which the permeability in data set [1] worked out at 99%. This compound also showed a solubility in data set [2] of over 1000 µM. Also, the CLH in [3] was 58 µL/min/mg.
For `Nc1ncc(-c2ccc(CN3CCC(N4CCOCC4)CC3)cc2Cl)nc1C(=O)N[C@H]1CC[C@H](O)CC1` the same measures were 96%, over 1000 µM and 74 µL/min/mg.
Consider `C[C@@](O)(CNC(=O)c1nc(-c2ccc(CN3CCCC3)cc2)cnc1N)C(F)(F)F`, for which the permeability in [1] came out at 99%. This compound yielded a solubility in data set [2] of over 1000 µM. Also, in data set [3], the CLH stood at 41 µL/min/mg.
On to `CN(C)Cc1ccc(-c2cnc(N)c(C(=O)NC3CCCC3O)n2)cc1` (centres undefined), for which the permeability in data set [1] was 99%. In data set [2], the solubility is 940 µM (≈ 334 µg/mL). In [3], the CLH was determined as 179 µL/min/mg.
The compound `Nc1ncc(-c2ccc(CN3CCC(N4CCOCC4)CC3)cc2Cl)nc1C(=O)NC12CCC(O)(CC1)CC2` came in with a permeability in data set [1] of 99%. The IC50 on TGF-beta receptor type-1 is 2.2 µM; at Activin receptor type-1 [8], 0.012 µM; in data set [14], 0.12 µM; at Activin receptor type-1 [20] it was 0.008 µM; in [21], 2.1 µM; against Activin receptor type-1 [22], 0.044 µM. The IC50 in data set [23] was found to be 0.28 µM. In addition, the Activity came out at 27% in data set [4]; 24% in data set [5]; 14% in data set [9]; 0.7% in data set [10]; 29% in data set [13]; 2% in data set [15]. For the same compound, the Activity turned out to be 8.5% in data set [16], 11% in data set [17] and 14% in data set [18]. Besides, the Ratio IC50 was 35 in the data set listed under Homo sapiens [6]; 275 in the data set filed under Homo sapiens [7]; 15 in the data set filed under Homo sapiens [11]; 263 in the data set filed under Homo sapiens [12]; 1.5 in the data set filed under Homo sapiens [19]. This compound gave a solubility in data set [2] of 420 µM (≈ 233 µg/mL). Moreover, the CLH in data set [3] worked out at 55 µL/min/mg.
`CN(C)Cc1ccc(-c2cnc(N)c(C(=O)NCC(O)C(F)(F)F)n2)cc1` (centres undefined) gave a permeability in [1] of 93%. The same compound had a solubility in data set [2] of 880 µM (≈ 337 µg/mL). Also, the CLH in data set [3] came out at 159 µL/min/mg.
The compound `CN(C)Cc1ccc(-c2cnc(N)c(C(=O)NC[C@@](C)(O)C(F)(F)F)n2)cc1` showed a permeability in [1] of 99%. This compound had a solubility in data set [2] of 510 µM (≈ 203 µg/mL). Further, the CLH in [3] is 126 µL/min/mg.
In data set [1], `C[C@@](O)(CNC(=O)c1nc(-c2ccc(CN3CCS(=O)(=O)CC3)cc2)cnc1N)C(F)(F)F` showed a permeability of 45%. In addition, in [2], the solubility turned out to be 4 µM (≈ 1.95 µg/mL). Moreover, the CLH in data set [3] is 20 µL/min/mg.
For `CN(C)Cc1ccc(-c2cnc(N)c(C(=O)NC3CCC(O)CC3)n2)cc1` (centres undefined), in that order: 94%, 850 µM (≈ 314 µg/mL) and 64 µL/min/mg.
For `CCNC(=O)c1nc(-c2ccc(CN(C)C)cc2)cnc1N`, the permeability in [1] is recorded as 99%. Further, the solubility in data set [2] was over 1000 µM. In addition, in data set [3], the CLH was determined as 373 µL/min/mg.
Take `Nc1ncc(-c2ccc(CN3CCC(N4CCCC4)CC3)cc2)nc1C(=O)N[C@H]1CC[C@H](O)CC1` (stereo in doubt; 19): the permeability in [1] is recorded as 62%. Further, the CLH in [3] worked out at 23 µL/min/mg.
Consider `CC(C)N1CCN(Cc2ccc(-c3cnc(N)c(C(=O)NC[C@@](C)(O)C(F)(F)F)n3)cc2)CC1`, for which the permeability in data set [1] is on record as 99%. In addition, the solubility in [2] was over 1000 µM. In data set [3], the CLH was found to be 28 µL/min/mg.
Consider `CC(C)N1CCN(Cc2ccc(-c3cnc(N)c(C(=O)N[C@H]4CC[C@H](O)CC4)n3)cc2)CC1`, for which the permeability in data set [1] is 85%. The compound also came in with a solubility in [2] of 830 µM (≈ 376 µg/mL). In data set [3], the CLH came to 12 µL/min/mg.
Regarding `C[C@@](O)(CNC(=O)c1nc(-c2ccc(CN3CCOCC3)cc2)cnc1N)C(F)(F)F`, the permeability in data set [1] worked out at 99%. Further, the solubility in data set [2] was 190 µM (≈ 83.5 µg/mL). In addition, the CLH in data set [3] turned out to be 86 µL/min/mg.
For `C[C@@](O)(CNC(=O)c1nc(-c2ccc(CN3CCNCC3)cc2)cnc1N)C(F)(F)F`, in that order: 42%, over 1000 µM and under 10 µL/min/mg.
For `CC(C)NC(=O)c1nc(-c2ccc(CN(C)C)cc2)cnc1N`, in that order: 100%, over 1000 µM and 634 µL/min/mg.
